Values belong to the compound of their own block, whether it stands above or below them. Active and inactive are the calls of the source. No cut-off for these calls is given here. Where a SMILES comes first, the peptide text is derived from it. Bridges are numbered along the chain shown (N, C = ends).
Columns and labels:
[1] = Stability of the compound assessed as trypsin (unknown origin)-mediated drug degradation at 200:1 peptide to enzyme ratio after 24 to 96 hrs by RP-HPLC analysis; type: ADME; conditions: human
[2] = biological target: T1, SPRY domain-containing SOCS box protein 2 (Homo sapiens, UniProt Q99619); assay: Binding affinity to GST-tagged SPSB2 (unknown origin) expressed in Escherichia coli BL21 (DE3) by SPR assay
T1 sequence (Q99619 whole entry): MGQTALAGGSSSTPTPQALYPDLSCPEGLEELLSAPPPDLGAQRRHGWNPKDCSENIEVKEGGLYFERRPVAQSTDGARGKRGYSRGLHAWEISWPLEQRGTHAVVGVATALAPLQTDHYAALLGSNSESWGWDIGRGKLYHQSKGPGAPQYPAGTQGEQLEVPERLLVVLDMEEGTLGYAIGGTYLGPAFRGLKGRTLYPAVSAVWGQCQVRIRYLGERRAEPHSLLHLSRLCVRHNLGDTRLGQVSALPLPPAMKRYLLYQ

[3] = Stability of the compound in 1 mM DTT at 0.5 mg/ml after 15 mins by redox stability/RP-HPLC assay; type: physicochemical; conditions: 0.25 h
[4] = Stability of the compound in 1:10 ratio of DTT:H2O2 at 0.5 mg/ml after 1 hr by redox stability/RP-HPLC assay; type: physicochemical
[5] = Stability of the compound in 1:1 ratio of DTT:H2O2 at 0.5 mg/ml after 1 hr by redox stability/RP-HPLC assay; type: physicochemical; conditions: 1:1 DTT:H2O2; read-out: Stability
[6] = Stability of the compound assessed as pepsin (unknown origin)-mediated drug degradation at 200:1 peptide to enzyme ratio after 24 to 96 hrs by RP-HPLC analysis; type: ADME; conditions: human
[7] = biological target: T2, SPRY domain-containing SOCS box protein 2 (Mus musculus) (UniProt O88838); assay: Displacement of full-length of iNOS from SPSB2 in LPS/IFNgamma-stimulated mouse BMDM cell lysate at 10 uM after 2 hrs by Western blotting analysis; type: cell-free
T2 sequence (whole entry): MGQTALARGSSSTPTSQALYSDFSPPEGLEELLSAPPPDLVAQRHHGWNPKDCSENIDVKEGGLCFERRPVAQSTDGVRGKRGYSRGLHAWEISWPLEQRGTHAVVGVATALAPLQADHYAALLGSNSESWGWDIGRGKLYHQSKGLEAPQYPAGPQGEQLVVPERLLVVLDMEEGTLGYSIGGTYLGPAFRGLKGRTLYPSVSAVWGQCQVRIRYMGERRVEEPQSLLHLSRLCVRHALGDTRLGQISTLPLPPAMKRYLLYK

[8] = Stability of the compound assessed as alpha-chymitrypsin (unknown origin)-mediated drug degradation at 200:1 peptide to enzyme ratio after 24 to 96 hrs by RP-HPLC analysis; type: ADME; conditions: human
[9] = Stability in human plasma assessed as compound remaining at 50 uM after 24 hrs by RP-HPLC analysis; type: ADME, cell-free; conditions: read-out: Stability

Stability [1]: Stable | Kd [2]: 35.1 nM | Stability [3]: Unstable | Stability [4]: Stable | remaining at 1 h, 0.5 mg/ml [5]: 55% | Stability [6]: Stable | inhibition [7]: Active | Stability [8]: Stable
Compound: CC[C@H](C)[C@H](NC(=O)[C@H](CC(=O)O)NC(=O)[C@@H](NC(=O)[C@H](CS)NC(C)=O)C(C)C)C(=O)N[C@@H](CC(N)=O)C(=O)N[C@@H](CC(N)=O)C(=O)N[C@@H](CC(N)=O)C(=O)N[C@@H](CS)C(N)=O (Ac-CVDINNNC-NH2)

Kd [2]: 4.4 nM
Compound: CC[C@H](C)[C@@H]1NC(=O)[C@H](CC(=O)O)NC(=O)[C@H](C(C)C)NC(=O)[C@@H](NC(C)=O)CSSC[C@@H](C(N)=O)NC(=O)[C@H](CC(N)=O)NC(=O)[C@H](CC(N)=O)NC(=O)[C@H](CC(N)=O)NC1=O (Ac-CVDINNNC-NH2; disulfide 1-8)

Kd [2]: 318 nM
Compound: Ac-DINNN-NH2

remaining at 24 h, 50 µM [9]: 83% | Stability [6]: Unstable
Compound: Ac-KEEKDINNNVKKT-NH2

Reference: ChEMBL document CHEMBL3351643, “A potent cyclic peptide targeting SPSB2 protein as a potential anti-infective agent” (J Med Chem, 2014)
